In patent US20250222168A1, “METHOD OF FORMING AN ALIGNED TISSUE OR TISSUE CONSTRUCT, A TISSUE OR TISSUE CONSTRUCT, AND BIOINK” (PRESIDENT AND FELLOWS OF HARVARD COLLEGE, priority 2022, published 2025):

What was measured:
[1] = tested on: aOBBs (anisotropic organ building blocks of hiPSC-CMs and hNDFs); experiment: aOBB compaction upon harvest from micropillar array after pre-incubation in ROCK inhibitor; assay type: cell-based, human; conditions: FIGS. 8F, 8G; pre-incubation of aOBBs (50 uM, 1 hour)
Experimental: FIGS. 8A-8G depict scalable generation of cellularly aligned, anisotropic organ building blocks (OBBs). […] Scale bars, top: 200 μm, bottom: 20 μm. (FIG. 8B) Fourier analysis used to quantify the high degree of sarcomere alignment. (FIG. 8C) Without capped ends, aOBBs slide off micro-pillars overtime. (FIG. 8D) aOBB force generation on Day 3. n=5 separate passages. […] Scale bars, 1000 μm. In order to prevent aOBB compaction upon removal from pillars, the aOBBs may be pre-incubated in 50 uM rock inhibitor (Y-27632) for a period of time, such as, e.g., 1 hour. Second, 1 mL of 10% gelbrin (w/v) solution is prepared in DMEM/F12 (Gibco). Third, DMEM High Glucose+10% FBS is supplemented with 50 μM […] (Biogems). Fourth, 100 U/mL thrombin solution is prepared in DMEM High Glucose+10% FBS. All ECM and media solutions were held at 37° C. using a hotplate. […] After 1 h, the aOBBs were harvested manually using a P1000 pipette with wide-bore tips. The wide-bore tips were treated with 3% bovine serum albumin (BSA) to prevent adsorption of the aOBBs. aOBBs were collected three wells at a time and transferred into a single 50 mL tube. Upon collection, the aOBBs were allowed to settle under gravity for 5 min. After the supernatant was aspirated, the volume (x mL) of compacted aOBBs was estimated. We subsequently wash compacted aOBBs in 3× volume of gelbrin bioink. […]

[2] = tested on: aOBBs (anisotropic organ building blocks of hiPSC-CMs and hNDFs); experiment: aOBB contraction (force generation on micro-pillars) with ROCK inhibitor and after washing; assay type: cell-based, human; conditions: FIG. 8E, n=10 aOBBs from 1 passage
Source text: FIGS. 8A-8G depict scalable generation of cellularly aligned, anisotropic organ building blocks (OBBs). […] Scale bars, top: 200 μm, bottom: 20 μm. (FIG. 8B) Fourier analysis used to quantify the high degree of sarcomere alignment. (FIG. 8C) Without capped ends, aOBBs slide off micro-pillars overtime. (FIG. 8D) aOBB force generation on Day 3. n=5 separate passages. […] Scale bars, 1000 μm. FIGS. 14A-14C depict contractile force measurements for aligned cardiac tissues. Force measurements are quantified using Euler-Bernoulli beam theory. Image and schematic representations of (FIG. 14A) micro- and (FIG. 14B) macro-pillars were quantified using an Instron. Micro- and macro-pillar dimensions were measured from high resolution images recorded across 20 independent samples. (FIG. 14C) The material and geometric information were combined to numerically estimate cantilever spring constants and translate pillar displacement to force generation. Based upon the total concentration of iPSC-CMs, an appropriate volume of 1× rat tail collagen I (Corning) solution was prepared on ice. An appropriate volume of collagen I is calculated based upon a desired final concentration of 1.25 mg/mL. Then y/100 mL of 250 mM CaCl2, ˜x/40 mL of 1 N NaOH, and y mL of collagen I are added, in order, to the basal DMEM high glucose media. […]

## C[C@@H](N)[C@H]1CC[C@H](C(=O)Nc2ccncc2)CC1 [Y-27632]
[1]
  effect on aOBB compaction upon harvest: blunts compaction upon harvest from micropillar array
[2]; after washing out ROCK inhibitor
  recovery of aOBB contractile function: Full contractile function is recovered after washing
[2]; during exposure to ROCK inhibitor
  effect on aOBB contraction: temporarily blunts aOBB contraction
